Test [1] concerns the target T1, PRMT5-MEP50 enzyme complex (Homo sapiens, UniProt O14744).
T1 construct: Full-length (FL)-PRMT5-MEP50 enzyme complex; made in house; host or cells: baculovirus-transfected Sf21 cells
Kind of test: PRMT5-MEP50 Enzyme Methylation Assay. The note with it: one EC50 shown: 4 parameters single site sigmoidal model; two shown: first EC50 of 7 parameters biphasic model; 1.0 nM PRMT5-MEP50, 75 nM biotinylated H4R3(Me1) peptide, 15 μM SAM; read-out: Enzyme Methylation Assay (EC50 or EC50 1). The test is classed as biochemical. Here is the method: PRMT5-MEP50 Enzyme Methylation Assay
PRMT5-MEP50 biochemical assay is a direct measurement of the methylation activity of the enzyme complex on a short peptide substrate derived from the N-terminus of […]. Methylation experiment is performed with recombinant PRMT5-MEP50 protein complex. The assessment of inhibitory effect of small molecules is measured by the effectiveness of the compounds to inhibit this reaction (EC50).
In this assay, the potency (EC50) of each compound was determined from a twenty-point (1:2 serial dilution; top compound concentration of 100000 nM) titration curve using the following outlined procedure. To each well of a white ProxiPlus 384 well-plate, 100 nL of compound (1% DMSO in final assay volume of 10 μL) was dispensed, followed by the addition of 8 μL of 1× assay buffer (50 mM Bicine pH 8.0, 1 mM DTT, 0.004% Tween20, 0.01% BSA) containing 1.25 nM of Full-length (FL)-PRMT5-MEP50 enzyme complex (recombinant proteins from baculovirus-transfected Sf21 cells: FL-PRMT5; MW=[…] and FL-MEP50; MW=38614) and 1 μL of 150 μM S-(5′-Adenosyl)-L-Methionine Chloride (SAM). Plates were sealed and placed in a 37° C. humidified chamber for a 60 minutes pre-incubation with compound. Subsequently, each reaction was initiated by the addition of 1 μL 1× assay buffer containing 750 nM biotinylated H4R3(Me1) peptide. The final reaction in each well of 10 μL consists of 1.0 nM PRMT5-MEP50, 75 nM biotinylated-peptide, and 15 μM SAM. Methylation reactions proceeded for 150 minutes in a sealed plate at 37° C. Reactions were immediately quenched by the addition of 1 μL of 5% formic acid. Plates were then frozen and shipped to SAMDI™ Tech Inc. to determine the percent conversion from H4R3(Me1) to H4R3(Me2). Dose-response curves were generated by plotting percent effect (% product conversion; Y-axis) vs. Log 10 compound concentrations (X-axis). EC50 values were determined by non-linear regression according to models for either sigmoidal (4 parameters) or biphasic (7 parameters) dose-response curves.

The test system of test [2] is symmetric dimethylation of arginine (SDMA) of PRMT5 substrates in MCF-7 cells. Kind of test: PRMT5 Cell Target Engagement (TE) Assay. Conditions: MCF-7 cells treated for 3 days, nuclear SDMA by high content imaging, top concentration 10000 nM. The test is classed as cell-based. In short, it runs like this:
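MCF-7 cells treated 3 days at 37 °C with 10-point 1:3 titration from 10000 nM top. Fixed cells stained with anti-SDMA antibody plus Alexa488 secondary and Hoechst; nuclear fluorescence quantified by high-content imaging versus DMSO wells. EC50 from 4-parameter fit of percent fluorescence vs log concentration.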

T1 sequence (O14744 whole entry): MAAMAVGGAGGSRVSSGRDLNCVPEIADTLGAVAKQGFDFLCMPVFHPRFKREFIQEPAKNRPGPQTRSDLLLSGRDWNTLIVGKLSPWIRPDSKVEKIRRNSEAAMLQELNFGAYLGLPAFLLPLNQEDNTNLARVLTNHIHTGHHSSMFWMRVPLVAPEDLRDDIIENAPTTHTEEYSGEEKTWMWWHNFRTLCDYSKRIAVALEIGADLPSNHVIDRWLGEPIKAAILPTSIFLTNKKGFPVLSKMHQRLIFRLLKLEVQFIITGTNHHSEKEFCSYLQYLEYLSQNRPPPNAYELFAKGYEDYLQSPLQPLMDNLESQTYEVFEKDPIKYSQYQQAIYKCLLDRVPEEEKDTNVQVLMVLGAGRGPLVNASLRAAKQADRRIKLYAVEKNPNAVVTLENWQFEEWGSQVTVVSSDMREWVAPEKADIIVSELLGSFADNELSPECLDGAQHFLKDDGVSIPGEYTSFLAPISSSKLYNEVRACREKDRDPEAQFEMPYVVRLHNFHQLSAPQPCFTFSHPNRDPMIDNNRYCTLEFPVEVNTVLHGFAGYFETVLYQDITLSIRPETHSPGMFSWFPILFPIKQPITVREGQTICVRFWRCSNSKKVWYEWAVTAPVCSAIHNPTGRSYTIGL
T1 sequence (Q9BQA1 whole entry partner): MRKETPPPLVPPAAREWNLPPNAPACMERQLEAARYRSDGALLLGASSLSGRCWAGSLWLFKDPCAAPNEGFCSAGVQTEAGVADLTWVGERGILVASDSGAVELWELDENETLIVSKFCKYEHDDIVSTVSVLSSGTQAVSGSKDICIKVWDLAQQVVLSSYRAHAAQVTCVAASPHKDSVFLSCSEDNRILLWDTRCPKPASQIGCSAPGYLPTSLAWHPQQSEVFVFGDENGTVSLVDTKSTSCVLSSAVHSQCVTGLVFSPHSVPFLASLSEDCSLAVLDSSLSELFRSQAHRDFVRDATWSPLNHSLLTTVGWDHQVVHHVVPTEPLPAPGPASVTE

As for `Nc1nc2cc(C[C@@H]3CC[C@@]4(O)[C@@H]3O[C@@H](n3cc(C5CC5)c5c(N)ncnc53)[C@@H]4O)ccc2cc1F` [Example 50], the figures for the concentration for a half-maximal effect (EC50) in test [1] and in test [2] were 0.3 nM and 0.7 nM, respectively.

Regarding `Nc1nc2cc(O[C@H]3CC[C@@]4(O)[C@@H]3O[C@@H](n3ccc5c(C(F)F)ncnc53)[C@@H]4O)ccc2cc1Br` [Example 79, (2R,3R,3aS,6S,6aR)-6-((2-amino-3-bromoquinolin-7-yl)oxy)-2-(4-(difluoromethyl)-7H-pyrrolo[2,3-d]pyrimidin-7-yl)hexabodro-3aH-cyclopenta[b]furan-3,3a-diol], the results for the concentration for a half-maximal effect (EC50) in test [1] and in test [2] were 2.9 nM and 52.5 nM, respectively.

Turning to `Nc1nc2cc(CCC3(CF)C[C@@H](n4ccc5c(N)ncnc54)[C@H](O)[C@@H]3O)ccc2cc1Br` (some centres unmarked) [Example 102], the concentration for a half-maximal effect (EC50) (in general, the concentration at which the effect is half-maximal) is 0.3 nM in test [1] and 2 nM in test [2].

For the molecule `Cc1ncnc2c1ccn2[C@@H]1O[C@@H]2[C@H](Cc3ccc4cc(Br)c(N)nc4c3)OC[C@]2(O)[C@H]1O` [Example 133], in test [2] (Homo sapiens, MCF7, 72 h), the concentration for a half-maximal effect (EC50) was 2.7 nM.

In the case of `Cc1ncnc2c1ccn2[C@@H]1O[C@@H]2[C@@H](Cc3ccc4cc(Br)c(N)nc4c3)OC[C@]2(O)[C@H]1O` [Example 134, (2R,3R,3aS,6R,6aR)-6-((2-amino-3-bromoquinolin-7-yl)methyl)-2-(4-methyl-7H-pyrrolo[2,3-d]pyrimidin-7-yl)tetrahydrofuro[3,4-b]furan-3,3a(4H)-diol], it took 35.8 nM to reach a half-maximal effect in test [2] (Homo sapiens, MCF7, 72 h) (EC50).

`Cc1cn([C@@H]2O[C@@H]3[C@H](Cc4ccc5cc(Br)c(N)nc5c4)OC[C@]3(O)[C@H]2O)c2ncnc(N)c12` [Example 135, (2R,3R,3aS,6S,6aR)-6-((2-amino-3-bromoquinolin-7-yl)methyl)-2-(4-amino-5-methyl-7H-pyrrolo[2,3-d]pyrimidin-7-yl)tetrahydrofuro[3,4-b]furan-3,3a(4H)-diol] showed an EC50 in test [2] (Homo sapiens, MCF7, 72 h) of 0.6 nM.

Consider `Nc1nc2cc(C[C@@H]3OC[C@@]4(O)[C@@H]3O[C@@H](n3ccc5c(N)ncnc53)[C@@H]4O)ccc2cc1Br` [Example 136, (2R,3R,3aS,6S,6aR)-6-((2-amino-3-bromoquinolin-7-yl)methyl)-2-(4-amino-7H-pyrrolo[2,3-d]pyrimidin-7-yl)tetrahydrofuro[3,4-b]furan-3,3a(4H)-diol], for which the EC50 in test [2] (Homo sapiens, MCF7, 72 h) is 0.4 nM.

In turn, `Nc1nc2cc(C[C@@H]3CC[C@@]4(O)[C@@H]3O[C@@H](n3ccc5c(N)ncnc53)[C@@H]4O)ccc2cc1C(F)F` [Example 137, (2R,3R,3aS,6S,6aR)-6-((2-amino-3-(difluoromethyl)quinolin-7-yl)methyl)-2-(4-amino-7H-pyrrolo[2,3-d]pyrimidin-7-yl)hexahydro-2H-cyclopenta[b]furan-3,3a-diol] came in with an EC50 in test [2] (Homo sapiens, MCF7, 72 h) of 0.8 nM.

For the origin of these results see patent publication US12173026B2, “PRMT5 inhibitors” (Merck Sharp & Dohme LLC, priority 2018, dated 2024).
